US6713515B2, “Retinoic acid receptor antagonists as promoters of angiogenesis” (Bristol Myers Squibb Company, priority 2000, dated 2004)
Entries after “also recorded” stand apart in the source; their conditions may differ.

Columns and labels:
RAR-γ [1] = biological target: T1, RAR-γ (Homo sapiens, UniProt P13631); assay: Receptor transactivation, GAL4-RAR chimeric receptor/CAT reporter in HeLa cells; format: cell-based; details: 24 hours
T1 sequence (P13631 with tags, fused parts or gaps limits assumed, species assumed): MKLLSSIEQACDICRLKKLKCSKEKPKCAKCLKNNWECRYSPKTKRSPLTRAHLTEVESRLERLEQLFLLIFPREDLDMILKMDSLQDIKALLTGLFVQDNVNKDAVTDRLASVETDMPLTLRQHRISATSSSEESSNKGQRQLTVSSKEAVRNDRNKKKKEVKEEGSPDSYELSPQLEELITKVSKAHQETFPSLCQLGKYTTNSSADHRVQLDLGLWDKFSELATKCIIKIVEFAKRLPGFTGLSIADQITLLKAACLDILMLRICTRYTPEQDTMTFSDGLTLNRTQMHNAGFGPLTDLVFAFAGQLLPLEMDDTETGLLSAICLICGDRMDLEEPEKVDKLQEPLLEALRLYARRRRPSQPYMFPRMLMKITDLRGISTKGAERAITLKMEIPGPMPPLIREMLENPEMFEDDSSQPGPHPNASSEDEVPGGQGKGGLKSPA

RAR-α [2] = biological target: T2, RAR-α (Homo sapiens, UniProt P10276); assay: as above; format: cell-based; details: 24 hours
T2 sequence (P10276 with tags, fused parts or gaps limits assumed, species assumed): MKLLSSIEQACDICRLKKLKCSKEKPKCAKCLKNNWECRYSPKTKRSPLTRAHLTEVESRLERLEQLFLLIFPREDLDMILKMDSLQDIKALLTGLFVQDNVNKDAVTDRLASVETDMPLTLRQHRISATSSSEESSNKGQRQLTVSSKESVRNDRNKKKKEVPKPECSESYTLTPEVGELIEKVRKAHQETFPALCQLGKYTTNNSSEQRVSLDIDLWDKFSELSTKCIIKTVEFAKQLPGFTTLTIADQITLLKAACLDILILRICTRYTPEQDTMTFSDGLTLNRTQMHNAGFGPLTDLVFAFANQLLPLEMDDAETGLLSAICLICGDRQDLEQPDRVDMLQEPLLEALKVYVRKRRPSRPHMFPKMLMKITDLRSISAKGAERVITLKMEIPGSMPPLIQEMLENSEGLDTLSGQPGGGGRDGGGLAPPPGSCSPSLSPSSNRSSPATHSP

RAR-β [3] = biological target: T3, RAR-β (Homo sapiens, UniProt P10826); assay: as above; format: cell-based
T3 sequence (P10826 with tags, fused parts or gaps limits assumed, species assumed): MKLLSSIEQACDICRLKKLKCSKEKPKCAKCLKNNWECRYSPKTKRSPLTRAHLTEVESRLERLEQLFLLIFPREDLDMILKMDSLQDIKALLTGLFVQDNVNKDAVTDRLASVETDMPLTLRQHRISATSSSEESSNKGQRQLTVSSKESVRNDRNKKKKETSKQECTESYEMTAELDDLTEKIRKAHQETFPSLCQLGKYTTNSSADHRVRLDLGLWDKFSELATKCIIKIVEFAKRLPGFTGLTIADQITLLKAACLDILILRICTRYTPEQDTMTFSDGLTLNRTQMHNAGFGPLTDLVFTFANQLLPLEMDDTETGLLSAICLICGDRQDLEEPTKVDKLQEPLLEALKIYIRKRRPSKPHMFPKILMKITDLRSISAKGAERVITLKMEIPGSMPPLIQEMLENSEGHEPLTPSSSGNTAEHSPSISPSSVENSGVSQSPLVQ

RAR-α [4] = biological target: T4, RAR-α (Homo sapiens, UniProt P10276); assay: Receptor binding competition assay with radioactive t-RA; details: apparent Kd from competition with radioactive t-RA, recombinant RAR; read-out: Direct Binding RAR-α Kd
T4 sequence (P10276 1-462): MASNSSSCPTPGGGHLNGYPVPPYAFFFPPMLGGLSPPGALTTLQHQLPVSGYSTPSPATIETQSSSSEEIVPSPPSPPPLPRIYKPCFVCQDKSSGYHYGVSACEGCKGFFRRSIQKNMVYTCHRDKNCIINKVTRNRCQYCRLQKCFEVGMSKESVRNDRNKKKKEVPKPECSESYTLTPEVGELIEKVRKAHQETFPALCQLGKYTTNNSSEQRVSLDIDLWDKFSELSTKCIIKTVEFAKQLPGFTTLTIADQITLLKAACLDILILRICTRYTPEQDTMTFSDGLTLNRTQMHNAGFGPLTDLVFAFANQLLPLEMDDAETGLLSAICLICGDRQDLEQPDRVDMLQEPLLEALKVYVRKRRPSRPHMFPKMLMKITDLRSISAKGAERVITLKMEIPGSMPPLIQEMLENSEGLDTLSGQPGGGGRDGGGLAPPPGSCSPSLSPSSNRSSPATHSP

RAR-γ [5] = biological target: T5, RAR-γ (Homo sapiens, UniProt P13631); assay: as above; details: for Kd: apparent Kd from competition with radioactive t-RA, recombinant RAR, read-out: Direct Binding RAR-γ Kd
T5 sequence (P13631 1-454): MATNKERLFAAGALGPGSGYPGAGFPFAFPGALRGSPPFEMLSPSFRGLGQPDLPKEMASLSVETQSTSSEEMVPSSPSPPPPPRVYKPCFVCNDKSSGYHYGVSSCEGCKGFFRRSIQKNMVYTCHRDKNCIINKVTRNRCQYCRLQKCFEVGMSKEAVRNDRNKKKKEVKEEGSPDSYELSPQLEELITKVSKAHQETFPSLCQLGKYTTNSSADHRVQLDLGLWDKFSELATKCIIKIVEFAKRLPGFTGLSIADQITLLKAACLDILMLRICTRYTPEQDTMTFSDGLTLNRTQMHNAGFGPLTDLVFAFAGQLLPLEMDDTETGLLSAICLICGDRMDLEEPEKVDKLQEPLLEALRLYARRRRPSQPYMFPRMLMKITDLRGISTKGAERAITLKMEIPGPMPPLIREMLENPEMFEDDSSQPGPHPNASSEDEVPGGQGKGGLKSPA

RAR-α [6] = biological target: T2, RAR-α; assay: Transactivation competition assay (antagonist activity) in transfected HeLa cells; format: cell-based; details: for Competition RAR-α % MAX: inhibition of transactivation by 10^−7 M t-RA, 16 hours
Method: (§1) Antagonist Activity Antagonist activity of the test retinoids was evaluated by a transactivation competition assay. Transfected HeLa cells were treated for 16 hours with 10^−7 M t-RA, with or without test retinoids, at concentrations of 10^−8 to 10^−5 M. The cells were then harvested and assayed for CAT activity. The antagonist activity was determined as an IC50 for the inhibition of transactivation produced by t-RA.

RAR-γ [7] = biological target: T1, RAR-γ; assay: as above; format: cell-based; details: for Competition RAR-γ % MAX: inhibition of transactivation by 10^−7 M t-RA, 16 hours
Method: as §1

RAR-β [8] = biological target: T3, RAR-β; assay: as above; format: cell-based; details: for Competition RAR-β % MAX: inhibition of transactivation by 10^−7 M t-RA, 16 hours
RAR-β [9] = biological target: T6, RAR-β (Homo sapiens, UniProt P10826); assay: Receptor binding competition assay with radioactive t-RA; details: apparent Kd from competition with radioactive t-RA, recombinant RAR; read-out: Direct Binding RAR-β Kd
T6 sequence (P10826 1-455): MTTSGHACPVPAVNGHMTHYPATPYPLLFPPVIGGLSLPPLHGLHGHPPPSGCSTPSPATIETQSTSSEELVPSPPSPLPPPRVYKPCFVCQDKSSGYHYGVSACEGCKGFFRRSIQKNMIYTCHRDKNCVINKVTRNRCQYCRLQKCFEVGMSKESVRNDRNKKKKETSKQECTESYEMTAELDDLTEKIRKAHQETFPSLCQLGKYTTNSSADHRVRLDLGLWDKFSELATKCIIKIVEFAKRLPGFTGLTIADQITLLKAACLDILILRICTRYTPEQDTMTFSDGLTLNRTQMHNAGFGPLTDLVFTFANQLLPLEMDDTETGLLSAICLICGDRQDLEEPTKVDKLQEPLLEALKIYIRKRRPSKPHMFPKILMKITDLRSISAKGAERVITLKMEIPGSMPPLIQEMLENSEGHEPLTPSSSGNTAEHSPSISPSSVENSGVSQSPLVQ

C57BL/KsJ mice = assay: Skin flap model of angiogenesis; format: in vivo
Method: The skin flap model is a suitable in vivo approach to monitor the angiogenic response because it requires restoration of the disrupted blood vessel network that is impaired at the distal edge of the flap. A single application of vehicle (ethanol) or different concentrations of Compound 5 were performed. The results were monitored one and two weeks after the initiation of the experiment.
Sections were deparaffinized in xylene and rehydrated in a series of ethanol/water solutions. A 4% mouse non-immune serum in PBS was used for blocking. Monoclonal anti-PECAM-1 antibody (CD31, Sigma) was used at 1:100 dilution. FITC-conjugated anti-mouse IgG antibody (Sigma) was further applied to the sections at 1:200 dilution. Visualization was performed on an Olympus fluorescent microscope.
Female C57BL/KsJ mice were purchased from Jackson Labs (Bar Harbor, Me., USA) at the age of 6 weeks. Animals were acclimated for at least 2 weeks and housed 4 per cage with free access to water and food under 12 h light/dark cycle at a temperature of 23±2° C. and a humidity of 55±10%.
The mice were anesthetized by an IP injection of xyalazine/ketamine, the hair at the back clipped and the surface sterilized with 70% ethanol. A 3-way, full-thickness incision was introduced with the use of a scalpel, the skin flap separated from underlying tissues, the compound or vehicle applied, and the skin repositioned and sutured. Mice were housed individually after the procedure. The animals were sacrificed by CO2 inhalation and tissues were fixed in formalin, embedded in paraffin and evaluated histologically or immunocytochemically.

| Structure (SMILES) | Transactivation RAR-γ % MAX (RAR-γ [1]) | Transactivation RAR-α % MAX (RAR-α [2]) | Transactivation RAR-β % MAX (RAR-β [3]; HeLa cells, 24 hours) | Kd (RAR-α [4]) | Kd (RAR-γ [5]) | RARβ transactivation (agonistic) activity, in words (RAR-β [3]; reporter transactivation assays) | IC50 (RAR-α [6]) | Competition RAR-α % MAX (RAR-α [6]) | IC50 (RAR-γ [7]) | Competition RAR-γ % MAX (RAR-γ [7]) | Competition RAR-β % MAX (RAR-β [8]) | Kd (RAR-β [9]) | Amount of endothelial cells (anti-PECAM-1 staining) (C57BL/KsJ mice; 0.01% and 0.1%, dose-dependent, FIG. 4) | Number of blood vessels under the flap (histology, H&E) (C57BL/KsJ mice; lower dose group, FIG. 3 center panel) | Number of blood vessels under the flap (histology, H&E) (C57BL/KsJ mice; single application, 0.01% and 0.1%, one and two weeks, vs ethanol vehicle, FIG. 3) | Binding to RARγ relative to Compound 4 (RAR-γ [5]; comparison of Kd values) | IC50 (RAR-β [8]) | EC50 (RAR-β [3]; HeLa cells, 24 hours, 50% of the effect of 10^−6 M t-RA) |
| --- | --- | --- | --- | --- | --- | --- | --- | --- | --- | --- | --- | --- | --- | --- | --- | --- | --- | --- |
| CC1=C(/C=C/C(C)=C/C=C/C(C)=C/C(=O)O)C(C)(C)CCC1 [All Trans RA, all trans retinoic acid, reference compound] | 100% | 100% | 100% |  |  |  |  |  |  |  |  |  |  |  |  |  |  |  |
| CC1(C)CC=C(c2ccccc2)c2cc(/C=C/c3ccc(C(=O)O)cc3)ccc21 [Compound 4, (E)-4-[2-(5,6-dihydro-5,5-dimethyl-8-phenyl-2-naphthalenyl)ethenyl]benzoic acid] | 0% | 0% | 20% | 0.001 µM | 0.0005 µM | weak RARβ transactivation activity; also recorded: weak RARβ agonistic activity | 0.2 µM | 100% | 0.2 µM | 100% | 80% |  |  |  |  |  |  |  |
| CC1(C)CC=C(C#Cc2ccccc2)c2cc(/C=C/c3ccc(C(=O)O)cc3)ccc21 [Compound 5, (E)-4-[[(5,6-dihydro-5,5-dimethyl-8-phenylethynyl)-2-naphthalenyl]ethenl]benzoic acid] | 0% | 0% | 0% | 0.0042 µM | 0.098 µM |  | 0.2 µM | 100% | 0.3 µM | 100% | 100% | 0.0029 µM | increased amounts of endothelial cells; also recorded: higher amounts of endothelial cells | increase in the number of blood vessels | increased angiogenesis; also recorded: significantly higher numbers of blood vessels | approximately two orders weaker | 0.3 µM |  |
| CC1(C)CC=C(c2ccc3ccccc3c2)c2cc(/C=C/c3ccc(C(=O)O)cc3)ccc21 [Compound 6, (E)-4-[2-[5,6-dihydro-5,5-dimethyl-8-(2-naphthalenyl)-2-naphthalenyl]ethenyl]-benzoic acid] | 0% | 0% | 0% | 0.002 µM | 0.024 µM |  | 0.3 µM | 100% | 0.9 µM | 100% | 100% | 0.057 µM |  |  |  |  | 0.5 µM |  |
| COc1ccc(C2=CCC(C)(C)c3ccc(/C=C/c4ccc(C(=O)O)cc4)cc32)cc1 [Compound 7, (E)-4-[2-[5,6-dihydro-5,5-dimethyl-8-(4-methoxyphenyl)-2-naphthalenyl]ethenyl]benzoic acid] | 0% | 0% | 0% | 0.0013 µM | 0.0026 µM |  | 0.4 µM | 100% | 1 µM | 100% | 100% | 0.0061 µM |  |  |  |  | 1 µM |  |
| CC1(C)CC=C(c2ccccc2)c2cc(/C=C/c3ccc(C(=O)O)cc3Cl)ccc21 [Compound 8, (E)-3-chloro-4-[2-(5,6-dihydro-5,5-dimethyl-8-phenyl-2-naphthalenyl)ethenyl]benzoic acid] | 0% | 0% | 110% | 0.2 µM | 0.245 µM |  | 3 µM | 80% | 2 µM | 80% | 0% | 0.0028 µM |  |  |  |  |  | 0.01 µM |
